Among the data in ChEMBL document CHEMBL1914354, “Design, synthesis and antiepileptic properties of novel 1-(substituted benzylidene)-3-(1-(morpholino/piperidino methyl)-2,3-dioxoindolin-5-yl)urea derivatives” (Eur J Med Chem, 2011) are Activity, MTC and minimal effective dose values, retold here.

Data set [1] has as its system Rattus norvegicus. As to the kind of experiment: Antiepileptic activity in Wistar rat assessed as protection against maximum electric shock-induced seizure at 30 mg/kg, po after 2 hrs. The class given is functional.
For data set [2], the system named is Rattus norvegicus. Nature of the data set: Antiepileptic activity in Wistar rat assessed as protection against maximum electric shock-induced seizure at 30 mg/kg, po after 1 hr. In kind it is functional.
Data set [3] concerns Rattus norvegicus. Nature of the data set: Antiepileptic activity in Wistar rat assessed as protection against maximum electric shock-induced seizure at 30 mg/kg, po after 0.5 hrs. The class given is functional.
The subject of data set [4] is Rattus norvegicus. As to the kind of experiment: Antiepileptic activity in Wistar rat assessed as protection against maximum electric shock-induced seizure at 30 mg/kg, po after 0.25 hrs. The class given is functional.
For data set [5], the system named is Mus musculus. As to the kind of experiment: Neurotoxicity in ip dosed Swiss albino mouse assessed as minimal motor impairment at 300 mg/kg, ip after 4 hrs by rotarod test. Also noted: dose 300 mg/kg, route intraperitoneal. To be noted: in vivo. The class given is toxicity, organism-based. For orientation: The rotarod test checks motor coordination on a turning rod.

Data set [6] deals with Mus musculus. Nature of the data set: Neurotoxicity in ip dosed Swiss albino mouse assessed as dose required for minimal motor impairment after 0.5 hrs by rotarod test. To be noted: in vivo. The class given is toxicity, organism-based.
Data set [7] relates to Mus musculus. Nature of the data set: Antiepileptic activity in ip dosed Swiss albino mouse assessed as dose required to protect against subcutaneous pentylenetetrazol-induced clonic seizures after 4 hrs. To be noted: read-out: MED. In kind it is functional.
In data set [8] the test system is Mus musculus. As to the kind of experiment: Antiepileptic activity in ip dosed Swiss albino mouse assessed as dose required to protect against subcutaneous pentylenetetrazol-induced clonic seizures after 0.5 hrs. The class given is functional. To be noted: read-out: MED.
In data set [9] the test system is Mus musculus. As to the kind of experiment: Antiepileptic activity in ip dosed Swiss albino mouse assessed as dose required to protect against maximum electric shock-induced seizure after 4 hrs. In kind it is functional. To be noted: read-out: MED.
Data set [10] has as its system Mus musculus. Nature of the data set: Antiepileptic activity in ip dosed Swiss albino mouse assessed as dose required to protect against maximum electric shock-induced seizure after 0.5 hrs. To be noted: read-out: MED. The class given is functional.
Data set [11] deals with Rattus norvegicus. As to the kind of experiment: Antiepileptic activity in Wistar rat assessed as protection against maximum electric shock-induced seizure at 30 mg/kg, po after 4 hrs. The class given is functional.
The test system of data set [12] is Rattus norvegicus. As to the kind of experiment: Neurotoxicity in Wistar rat assessed as minimal motor impairment at 30 mg/kg, po by rotarod method. In kind it is toxicity, organism-based. Details: dose 30 mg/kg, route oral. To be noted: in vivo.
Data set [13] concerns Mus musculus. As to the kind of experiment: Antiepileptic activity in ip dosed Swiss albino mouse assessed as protection against subcutaneous pentylenetetrazol-induced clonic seizures at 30 to 100 mg/kg, ip after 0.5 hrs. In kind it is functional. To be noted: sc, dose mg/kg 30-100, read-out: MED.
The subject of data set [14] is Mus musculus. Nature of the data set: Neurotoxicity in Swiss albino mouse assessed as minimal motor impairment at 300 mg/kg, ip after 0.5 hrs by rotarod test. The class given is toxicity, organism-based. Details: dose 300 mg/kg, route intraperitoneal. To be noted: in vivo.
Data set [15] has as its system Mus musculus. Nature of the data set: Antiepileptic activity in Swiss albino mouse assessed as protection against maximum electric shock-induced seizure at 300 mg/kg, ip after 4 hrs. In kind it is functional, organism-based. Details: dose 300 mg/kg.
The test system of data set [16] is Mus musculus. As to the kind of experiment: Neurotoxicity in ip dosed Swiss albino mouse assessed as dose required for minimal motor impairment after 4 hrs by rotarod test. In kind it is toxicity, organism-based. To be noted: in vivo.

Activity calls are given as the source filed them. No cut-off for these calls is given here.

Consider `O=C(/N=C/c1ccc(F)cc1)Nc1ccc2c(c1)C(=O)C(=O)N2CN1CCOCC1`, for which the Activity is 100% in the data set on Rattus norvegicus [1]; 50% in the data set on Rattus norvegicus [2]; 50% in the data set with Rattus norvegicus [3]; 25% in the data set on Rattus norvegicus [4]; “Non-toxic” in the data set on Mus musculus [5]; 100% in the data set with Rattus norvegicus [11]. Besides, the Activity result in the data set on Rattus norvegicus [12] is given as “Non-toxic”. Further, the MTC in the data set with Mus musculus [6] turned out to be 300 mg/kg. The minimal effective dose with Mus musculus [7] turned out to be 300 mg/kg; with Mus musculus [8], 100 mg/kg; with Mus musculus [9], 100 mg/kg; in the data set on Mus musculus [10], 30 mg/kg.
With `O=C(/N=C/c1ccc(O)cc1)Nc1ccc2c(c1)C(=O)C(=O)N2CN1CCOCC1`, the Activity is given as 0% with Rattus norvegicus [1]; 0% with Rattus norvegicus [2]; 0% in the data set with Rattus norvegicus [3]; 0% in the data set on Rattus norvegicus [4]; “Non-toxic” with Mus musculus [14]; 50% in the data set on Rattus norvegicus [11]. For the same compound, the Activity result in the data set on Rattus norvegicus [12] is on record as “Non-toxic”. In addition, the minimal effective dose was determined as 30 mg/kg in the data set on Mus musculus [13], 300 mg/kg in the data set on Mus musculus [7] and 300 mg/kg in the data set on Mus musculus [10]. Besides, the result in the data set on Mus musculus [15] was inactive. In the data set with Mus musculus [16], the MTC came to 300 mg/kg.
Take `O=C(/N=C/c1ccc(Cl)cc1)Nc1ccc2c(c1)C(=O)C(=O)N2CN1CCOCC1`: the Activity in the data set on Rattus norvegicus [1] is 100%; with Rattus norvegicus [2], 50%; with Rattus norvegicus [3], 50%; in the data set on Rattus norvegicus [4] it was 25%; in the data set with Mus musculus [5], “Non-toxic”; in the data set on Mus musculus [14] it was “Non-toxic”. Also, the Activity is 100% in the data set on Rattus norvegicus [11] and “Non-toxic” with Rattus norvegicus [12]. For the same compound, the minimal effective dose was found to be 300 mg/kg in the data set on Mus musculus [7], 300 mg/kg in the data set on Mus musculus [8], 100 mg/kg in the data set with Mus musculus [9] and 30 mg/kg in the data set with Mus musculus [10].
